The source of these data is patent US9421204B2, “Oligomer modified diaromatic substituted compounds” (priority 2010, dated 2016).

Where two headings read alike, the source gives them in different places.

Data set [1] is described as follows: Log P determination (Sirius GLpKa). It counts as physicochemical. Particulars: Partition Log P, 25° C.; for logP: read-out: Log P. On the procedure: The Sirius GLpKa instrument is used to determine the pKa and Log P. A blank standardization has to be completed first and passed in order to conduct the compound experiments. The solutions used by the instrument for the blank titration include water, a pH solution, and a surfactant (TRITON X-100). The TRITON X-100 was purchased commercially from Sirus. The 0.5% solution of TRITON X-100 was used in the experiment. In a 1 L volumetric flask 5 mls of TRITON X-100 is added and MILLI Q water to volume. The vessels used by the instrument were filled to ⅓ of their volume with each solution. Therefore the assay tray contains one vessel for water, pH solution, and surfactant for the blank run. The temperature of the water bath for the instrument is 25° C. The blank is calculated as an average of three “good” experiments. The “good” was denoted by a green check mark next to the assay number in the computer software. Once the blank was run successfully the instrument was ready to conduct the experiments. An additional method has to be set up for the Log P determinations for each compound. The conjugates are weighed into vessels in the same manner as for the previous experiment, i.e., 10% of the molecular weight. The vessels are placed in the assay tray of the instrument. The experimental parameters are entered into the computer. These included sample weight, molecular weight, assay type (Partition Log P), number of assays (three), and pKa value of the parent drug from the previous experiment. The run was started. There are three measurements for each run that are averaged to obtain the final results from the data points collected in the calculation software. All runs were denoted as “good” by the green check mark next to the assay number.

In a further data set the target is Wild Type RT (Human immunodeficiency virus type 1 group M subtype B, UniProt P04585). The data set can be described thus: HIV-1 Reverse Transcriptase Inhibition Assay. It counts as biochemical. On the procedure: The following materials were removed from the freezer and were stored on wet ice (dGTP, ^32P, purified enzyme extract, rCdG, dGTP, DNA). Test compounds were evaluated at a high test of 100 μM diluted in dH2O and if the stock solution was turbid, 1:1000 Triton-X was added to the stock solution. Thirty microliters (30 μL) of each dilution was then transferred in duplicate to the appropriate well of a 96-well plate. The positive and negative control wells each received 30 μL of dH2O instead of the compound. A 2× buffer was prepared in the following manner: 125 μL 2M Tris pH 8.0, 250 μL 3M KCl, 80 μL 1 M MgC12, 10 μL 2 M DTT, 40 μL 25 U/mL rCdG, 100 μL 1 mM dGTP, 10 μL 800 Ci/mMol alpha ^32P:dG TP, and 4.4 mL dH2O. Fifty microliters (50 μL) of 2× buffer was added to every well of the plate. BSA was diluted 1:100 and Triton-X 1:1000 in dH2O and the enzyme was added to the mixture at a 1:400 dilution. Twenty microliters (20 μL) of the enzyme solution was added to all of the wells of the plate except the negative control wells. Distilled water was used instead of enzyme in these wells. The plate was incubated at 37° C. for 30 minutes. Following incubation, 10 μL of 10 mg/mL DNA (MB-grade fish sperm) was added to each well, followed by 150 μL of cold 10% TCA in each well. The plate was incubated at room temperature for approximately 15 minutes in order to allow for precipitation of the samples. Following the incubation the contents were transferred to the appropriate filter plate. The plate was placed on the vacuum manifold and pushed firmly to induce suction. Wells were rinsed with 200 μL of cold TCA. Again, the plate was pushed down firmly and vacuum suction was applied. Once all of the liquid was aspirated from the filter plate, it was removed from the manifold and residual liquid was blotted from the bottom of the plastic base. The filtered wells were separated from the plastic base and the wells were blotted on clean, absorbent paper. The filtered wells were pushed into the cassette and a sheet of Millipore multiscreen tape was placed on the bottom of a Wallace Microbeta cassette covering all of the holes. Twenty microliters (20 μL) of Wallace Supermix Scintillant was added to each well and the top of the wells were covered with a sheet of the multiscreen tape. The plate was read on the Wallace MicroBeta counter to measure incorporated ^32P.

The next data set relates to NL4-3L100I. In words: Anti-HIV cytoprotection assay, drug resistant NL4-3 L100I. It is filed as cell-based. Particulars: HIV-1 strain NL4-3L100I; for EC50: CEM-SS cells. The procedure:
(§1) Cells were prepared as described above. Virus Preparation—The wild type NL4-3 and drug resistant A17 viruses were obtained from the NIH AIDS Research and Reference Reagent Program and stock virus pools were produced in CEM-SS cells. Amino acid substitutes of L100I, Y181C and P23L were introduced by site-directed mutagenesis into pN L4-3 and stock virus pools were produced in CEM-SS cells. A pretitered aliquot of virus was removed from the freezer (−80° C.) and allowed to thaw slowly to room temperature in a biological safety cabinet. Virus was re-suspended and diluted into tissue culture medium such that the amount of virus added to each well in a volume of 50 μL was the amount determined to yield 85 to 95% cell killing at 6 days post-infection.
(§2) Plate Format—Each plate contains cell control wells (cells only), virus control wells (cells plus virus), drug toxicity wells (cells plus drug only), drug colorimetric control wells (drug only) as well as experimental wells (drug plus cells plus virus). Samples were tested in triplicate with eleven half-log dilutions per compound. Efficacy and Toxicity XTT—Following incubation at 37° C. in a 5% CO2 incubator, the test plates were stained with the tetrazolium dye XTT (2,3-bis(2-methoxy-4-nitro-5-sulfophenyl)-5-[(phenylamino)carbonyl]-2H-tetrazolium hydroxide). XTT-tetrazolium was metabolized by the mitochondrial enzymes of metabolically active cells to a soluble formazan product, allowing rapid quantitative analysis of the inhibition of HIV induced cell killing by anti-HIV test substances. XTT solution was prepared daily as a stock of 1 mg/mL in RPMI1640. Phenazine methosulfate (PMS) solution was prepared at 0.15 mg/mL in PBS and stored in the dark at −20° C. XTTIPMS stock was prepared immediately before use by adding 40 μL of PMS per ml of XTT solution. Fifty microliters of XTT/PMS was added to each well of the plate and the plate was re-incubated for 4 hours at 37° C. Plates were sealed with adhesive plate sealers and shaken gently or inverted several times to mix the soluble formazan product and the plate was read spectrophotometrically at 450/650 nm with a Molecular Devices Vmax plate reader.
(§3) Data Analysis—Raw data was collected from the Softmax Pro 4.6 software and imported into a Excel XLFit4 spreadsheet for analysis by four parameter curve fit calculations. Both antiviral activity and toxicity are calculated.

For the next data set, the system named is NL4-3Y181C. In words: Anti-HIV cytoprotection assay, drug resistant NL4-3 Y181C. It is filed as cell-based. Particulars: HIV-1 strain NL4-3Y181C; for EC50: CEM-SS cells. On the procedure:
as §1, §2, §3

In the next data set the test system is NL4-3P236L. The data set can be described thus: Anti-HIV cytoprotection assay, drug resistant NL4-3 P236L. It counts as cell-based. Particulars: HIV-1 strain NL4-3P236L; for EC50: CEM-SS cells. The procedure: as §1, §2, §3
The mark [2] stands for this setting: Human immunodeficiency virus 1, CEM-SS.

For orientation: Log P means a log measure of how a compound divides between an organic and an aqueous phase. High values mean a more lipophilic compound, low ones a more hydrophilic compound. As a reminder, the IC50 is the concentration that gives 50% inhibition. A word on the EC50: it is the concentration giving half of the maximal effect. Consider “5-O-mPEG9-Delavirdine [mPEG9-O-Delavirdine]”, for which the log partition coefficient (Log P) in data set [1] amounted to 2.328. Besides, the IC50 on Wild Type RT (read-out: Wild Type RT IC50) was 0.56 µM. In the data set with NL4-3L100I, the TI is over 5.3. Also, the EC50 is 0.94 µM in the data set on NL4-3L100I (read-out: EC50), over 5 µM in the data set with NL4-3Y181C (read-out: EC50) and over 5 µM in the data set with NL4-3P236L (read-out: EC50).

On Wild Type RT (Wild Type RT IC50), `COCCNc1ccc2[nH]c(C(=O)N3CCN(c4ncccc4NC(C)C)CC3)cc2c1` [5-mPEG1-NH-Delavirdine, 5-mPEG-NH-Delavirdine] displayed an IC50 of 0.25 µM. The TI with NL4-3L100I is given as over 1.8; in the data set on NL4-3Y181C, over 1.2. Also, the EC50 is 0.56 µM in the data set with NL4-3L100I (setting [2]), 0.82 µM in the data set with NL4-3Y181C (setting [2]) and over 1 µM in the data set with NL4-3P236L (setting [2]).

The compound `COCCOCCNc1ccc2[nH]c(C(=O)N3CCN(c4ncccc4NC(C)C)CC3)cc2c1` [5-mPEG2-NH-Delavirdine] came in with an IC50 at Wild Type RT (Wild Type RT IC50) of 0.58 µM. In addition, the results for the TI in the data set on NL4-3L100I and in the data set on NL4-3P236L were over 1.4 and over 4.4, respectively. The EC50 is 0.71 µM with NL4-3L100I (setting [2]), over 1 µM with NL4-3Y181C (setting [2]) and 0.23 µM in the data set on NL4-3P236L (setting [2]).

Regarding `COCCOCCOCCOc1ccc2[nH]c(C(=O)N3CCN(c4ncccc4NC(C)C)CC3)cc2c1` [mPEG3-O-Delavirdine, 5-O-mPEG3-Delavirdine], the logP in data set [1] came to 1.98. The same compound returned an IC50 against Wild Type RT (Wild Type RT IC50) of 0.05 µM. In the data set with NL4-3L100I, this compound yielded a TI of over 167.0. For the same compound, the EC50 was 0.03 µM in the data set on NL4-3L100I (setting [2]), over 5 µM with NL4-3Y181C (setting [2]) and over 5 µM in the data set on NL4-3P236L (setting [2]).

On to `COCCOCCOCCOCCOc1ccc2[nH]c(C(=O)N3CCN(c4ncccc4NC(C)C)CC3)cc2c1` [mPEG4-O-Delavirdine, 5-O-mPEG4-Delavirdine], for which, in data set [1], the logP was 2.22. Moreover, on Wild Type RT (Wild Type RT IC50), half-maximal inhibition (IC50) was put at 0.28 µM. Besides, the TI in the data set with NL4-3L100I was over 5.3. Moreover, the results for the half-maximal effective concentration (EC50) with NL4-3L100I (setting [2]), in the data set with NL4-3Y181C (setting [2]) and with NL4-3P236L (setting [2]) were 0.95 µM, over 5 µM and over 5 µM, respectively.

In turn, `COCCOCCOCCOCCOCCOc1ccc2[nH]c(C(=O)N3CCN(c4ncccc4NC(C)C)CC3)cc2c1` [mPEG5-O-Delavirdine, 5-O-mPEG5-Delavirdine] displayed a half-inhibitory concentration (IC50) against Wild Type RT (Wild Type RT IC50) of 0.13 µM.

As to `COCCOCCOCCOCCOCCOCCOc1ccc2[nH]c(C(=O)N3CCN(c4ncccc4NC(C)C)CC3)cc2c1` [mPEG6-O-Delavirdine, 5-O-mPEG6-Delavirdine], the logP in data set [1] amounted to 2.65. The same compound yielded an IC50 against Wild Type RT (Wild Type RT IC50) of 0.29 µM.

Turning to `COCCOCCOCCOCCOCCOCCOCCOc1ccc2[nH]c(C(=O)N3CCN(c4ncccc4NC(C)C)CC3)cc2c1` [mPEG7-O-Delavirdine, 5-O-mPEG7-Delavirdine], the logP in data set [1] turned out to be 2.73. On Wild Type RT (Wild Type RT IC50), this compound came in with a concentration for half-maximal inhibition (IC50) of 0.7 µM.

On to `COCCOCCOCCOCCOCCOCCOCCOCCOc1ccc2[nH]c(C(=O)N3CCN(c4ncccc4NC(C)C)CC3)cc2c1` [mPEG8-O-Delavirdine, 5-O-mPEG8-Delavirdine], for which, in data set [1], the logP stood at 2.58. This compound came in with a half-inhibitory concentration (IC50) on Wild Type RT (Wild Type RT IC50) of 0.49 µM.
